For series [1] the following is noted: in vitro, cited from earlier work.
The next series has as its system cultured lens. The conditions noted are these: bolus of 250 μM H2O2, incubated for 24 hrs. On the procedure: FIG. 26: Cultured lens exposed to a bolus of 250 μM H2O2 incubated for 24 hrs.
Optimizing sensitivity for Raman. […] In previous in vitro studies Laser probes at 514 nm (82), and 647 nm (34) wavelengths were used for detection and characterization of Aβ-metal complex signature intensities in situ in lenses.

For the compound “rat Aβ1-40: rat β-amyloid peptide 1-40, lacking two key metal chelating amino acids (DAEFGHDSGFEVRHQKLVFFAEDVGSNKGAIIGLMVGGVV; Amyloid-beta protein 40; UniProt P08592 672-711, looked up, fragment)”, in series [1] (rat peptides), the “H2O2 produced relative to human Aβ1-40” value is approximately 20%.
Turning to “Aβ1-40: human β-amyloid peptide, 1-40 amino acid form derived from APP”, in series [1] (human peptides), the “H2O2 produced relative to Aβ1-42 peptides” value was approximately 50%.
As for `OO` [H2O2, hydrogen peroxide], the “light scattering indicative of lens opacification” value with cultured lens is “increases over time”.

These data come from patent US20100105098A1, “Methods of Identifying Disease Biomarkers in the Lense of the Eye” (priority 2006, published 2010).
